Three molecules from US20060270670A1, “Methods of synthesizing 6-alkylaminoquinoline derivatives” (priority 2005, published 2006) can be followed below.

The structures appear in SMILES notation. Where two headings read alike, the source gives them in different places.

One data set concerns 3T3. Briefly: Cell proliferation assay (SRB), 3T3. Type of data set: cell-based. The note with it: Mus musculus, NIH3T3, 48 h, read-out: IC50 cell proliferation 3T3.
In another data set the test system is 3T3/neu. The experiment in a line: Cell proliferation assay (SRB), 3T3/neu. The note with it: for IC50: Mus musculus, 48 h, read-out: IC50 cell proliferation 3T3/neu. Type of data set: cell-based, mouse.
A further data set relates to SK-Br-3. Briefly: Cell proliferation assay (SRB), SK-Br-3. The note with it: Homo sapiens, read-out: IC50 cell proliferation SK-Br-3. Type of data set: cell-based.
Another data set relates to BT474. Briefly: Cell proliferation assay (SRB), BT474. The class given is cell-based. The note with it: Homo sapiens, BT-474, 144 h, read-out: IC50 cell proliferation BT474.
Data set [1] deals with SW620 colon carcinoma cells. The experiment in a line: Cell proliferation assay (SRB), SW620. Type of data set: cell-based. The following applies: Homo sapiens, SW-620, 48 h, read-out: IC50 cell proliferation SW620.
Another data set concerns 3T3/neu xenografts. The experiment in a line: Effect on tumor xenografts, 3T3/neu. Type of data set: in vivo, Mice.
Another data set deals with BT474 xenografts. Briefly: Effect on tumor xenografts, BT474. Type of data set: in vivo, Mice. The note with it: for maximum tumor inhibition: day 21; for effect on BT474 xenografts: 10-40 mg/kg/day. The method, then: In animals bearing BT474 xenografts, treatment of animals with (E)N-{4-[3-chloro-4-(2-pyridinylmethoxy)anilino]-3-cyano-7-ethoxy-6-quinolinyl}-4-(methylamino)-2-butenamide had no effect at 10-40 mg/kg/day, as shown in Table 4.

The target in data set [2] is T1, cytoplasmic kinase domain of HER-2 (Homo sapiens, UniProt P04626).
T1 construct: Purified recombinant C-terminal fragment of HER-2 was incubated with ATP
Briefly: HER-2 autophosphorylation assay. Type of data set: biochemical. The following applies: purified recombinant C-terminal fragment of HER-2 with ATP; phosphotyrosine antibodies; mean and SE (n).

Another data set addresses T2, EGFR (Homo sapiens, UniProt P00533).
T2 construct: purchased ProQinase, Freiburg, Germany
Briefly: ErbB substrate phosphorylation assay (33PanQinase assay), EGFR. Type of data set: biochemical. The note with it: peptide substrate phosphorylation, [γ33P]-ATP. The method, then: (§1) Here, the ability of the compound to inhibit phosphorylation of a substrate peptide [poly(Glu-Tyr) or poly(Ala-Glu-Lys-Tyr)] was determined.

The target in the next data set is T3, HER-2 (Homo sapiens, UniProt P04626).
T3 construct: purchased ProQinase, Freiburg, Germany
The experiment in a line: ErbB substrate phosphorylation assay (33PanQinase assay), HER-2. The class given is biochemical. The note with it: peptide substrate phosphorylation, [γ33P]-ATP. As to the method: as §1

The target in another data set is T4, HER-4 (Homo sapiens, UniProt Q15303).
T4 construct: purchased ProQinase, Freiburg, Germany
The experiment in a line: ErbB substrate phosphorylation assay (33PanQinase assay), HER-4. The class given is biochemical. The note with it: peptide substrate phosphorylation, [γ33P]-ATP. As to the method:
as §1

The subject of the next data set is A431. Briefly: Cell proliferation assay (SRB), A431. The following applies: Homo sapiens, A-431, 48 h, A431, 2 days, mean and SE (n). Type of data set: cell-based.

T4 sequence (Q15303 26-1308): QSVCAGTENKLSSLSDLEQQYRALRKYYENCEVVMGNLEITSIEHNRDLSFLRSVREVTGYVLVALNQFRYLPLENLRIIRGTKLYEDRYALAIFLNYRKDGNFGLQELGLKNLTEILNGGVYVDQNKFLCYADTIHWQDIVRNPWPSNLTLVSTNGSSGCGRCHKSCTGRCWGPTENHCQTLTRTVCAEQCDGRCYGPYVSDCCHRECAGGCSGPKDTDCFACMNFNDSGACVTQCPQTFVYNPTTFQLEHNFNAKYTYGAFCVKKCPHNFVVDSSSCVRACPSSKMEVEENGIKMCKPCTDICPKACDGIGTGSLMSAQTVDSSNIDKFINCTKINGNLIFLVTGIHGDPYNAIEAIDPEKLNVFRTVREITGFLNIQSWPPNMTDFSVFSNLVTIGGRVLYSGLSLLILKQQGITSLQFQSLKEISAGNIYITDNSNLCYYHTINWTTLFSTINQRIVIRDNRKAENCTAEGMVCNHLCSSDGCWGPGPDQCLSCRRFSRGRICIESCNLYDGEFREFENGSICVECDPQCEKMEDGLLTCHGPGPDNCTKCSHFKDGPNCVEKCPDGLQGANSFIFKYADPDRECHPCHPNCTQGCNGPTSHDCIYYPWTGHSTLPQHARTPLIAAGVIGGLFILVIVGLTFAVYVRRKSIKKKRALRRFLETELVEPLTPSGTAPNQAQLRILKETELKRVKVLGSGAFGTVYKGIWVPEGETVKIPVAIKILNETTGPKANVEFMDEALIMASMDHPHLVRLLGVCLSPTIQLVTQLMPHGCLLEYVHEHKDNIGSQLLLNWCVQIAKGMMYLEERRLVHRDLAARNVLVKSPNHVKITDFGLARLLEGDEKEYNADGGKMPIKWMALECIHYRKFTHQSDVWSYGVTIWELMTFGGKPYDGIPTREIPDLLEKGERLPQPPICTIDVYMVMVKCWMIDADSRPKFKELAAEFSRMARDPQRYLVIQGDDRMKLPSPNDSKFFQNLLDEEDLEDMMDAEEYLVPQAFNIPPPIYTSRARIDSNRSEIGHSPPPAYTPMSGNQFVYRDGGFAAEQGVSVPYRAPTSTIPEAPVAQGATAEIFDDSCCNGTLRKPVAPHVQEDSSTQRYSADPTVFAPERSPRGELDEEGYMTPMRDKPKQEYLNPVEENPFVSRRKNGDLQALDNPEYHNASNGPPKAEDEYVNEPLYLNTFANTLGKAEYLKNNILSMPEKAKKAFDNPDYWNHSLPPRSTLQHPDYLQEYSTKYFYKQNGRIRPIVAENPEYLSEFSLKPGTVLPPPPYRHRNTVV
T1 sequence (P04626 676-1255 limits assumed): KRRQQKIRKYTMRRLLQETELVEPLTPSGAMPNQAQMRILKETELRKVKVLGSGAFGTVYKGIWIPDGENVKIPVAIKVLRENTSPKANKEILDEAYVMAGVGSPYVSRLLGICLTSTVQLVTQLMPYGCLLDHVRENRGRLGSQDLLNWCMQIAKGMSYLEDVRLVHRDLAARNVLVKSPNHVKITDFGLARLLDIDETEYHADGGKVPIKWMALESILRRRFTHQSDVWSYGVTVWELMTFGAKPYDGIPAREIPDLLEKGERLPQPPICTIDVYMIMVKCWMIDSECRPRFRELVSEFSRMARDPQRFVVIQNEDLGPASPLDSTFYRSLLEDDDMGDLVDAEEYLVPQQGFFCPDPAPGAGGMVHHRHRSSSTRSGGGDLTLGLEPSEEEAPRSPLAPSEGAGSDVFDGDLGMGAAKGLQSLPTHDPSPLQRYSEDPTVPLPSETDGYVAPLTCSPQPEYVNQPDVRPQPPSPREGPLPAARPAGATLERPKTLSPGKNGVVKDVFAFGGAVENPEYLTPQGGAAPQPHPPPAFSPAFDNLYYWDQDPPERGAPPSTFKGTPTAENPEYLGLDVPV
T2 sequence (P00533 25-1210): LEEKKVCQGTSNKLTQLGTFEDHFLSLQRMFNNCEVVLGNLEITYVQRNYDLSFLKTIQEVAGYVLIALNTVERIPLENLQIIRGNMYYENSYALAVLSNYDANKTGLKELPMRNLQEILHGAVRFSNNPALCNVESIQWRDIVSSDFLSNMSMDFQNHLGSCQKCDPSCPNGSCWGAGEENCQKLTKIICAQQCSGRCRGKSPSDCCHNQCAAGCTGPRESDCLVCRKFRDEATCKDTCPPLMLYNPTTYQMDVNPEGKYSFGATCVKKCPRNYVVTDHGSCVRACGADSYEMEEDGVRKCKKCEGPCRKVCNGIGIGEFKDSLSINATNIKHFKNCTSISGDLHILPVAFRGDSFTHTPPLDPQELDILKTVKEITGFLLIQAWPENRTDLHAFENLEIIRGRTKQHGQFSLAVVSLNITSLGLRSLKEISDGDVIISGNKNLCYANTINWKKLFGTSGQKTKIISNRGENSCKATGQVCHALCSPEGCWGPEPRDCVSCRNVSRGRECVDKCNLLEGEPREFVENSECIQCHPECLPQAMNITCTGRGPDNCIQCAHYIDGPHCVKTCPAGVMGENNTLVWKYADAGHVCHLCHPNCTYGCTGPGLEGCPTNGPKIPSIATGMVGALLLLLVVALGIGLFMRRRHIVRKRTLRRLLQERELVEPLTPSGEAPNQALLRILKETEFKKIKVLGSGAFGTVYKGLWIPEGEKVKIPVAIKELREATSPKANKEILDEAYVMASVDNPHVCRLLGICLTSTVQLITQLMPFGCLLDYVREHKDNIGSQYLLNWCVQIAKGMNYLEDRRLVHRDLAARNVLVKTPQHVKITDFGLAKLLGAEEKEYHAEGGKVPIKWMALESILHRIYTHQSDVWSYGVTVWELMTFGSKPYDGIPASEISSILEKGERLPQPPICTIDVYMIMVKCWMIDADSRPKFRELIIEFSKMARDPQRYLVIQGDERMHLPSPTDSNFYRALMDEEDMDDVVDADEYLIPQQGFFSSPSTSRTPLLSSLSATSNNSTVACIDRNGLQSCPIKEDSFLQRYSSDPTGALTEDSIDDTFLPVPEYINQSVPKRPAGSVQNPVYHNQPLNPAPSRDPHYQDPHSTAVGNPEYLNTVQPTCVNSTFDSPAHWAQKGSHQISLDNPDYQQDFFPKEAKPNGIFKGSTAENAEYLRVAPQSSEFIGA
T3 sequence (P04626 23-1255): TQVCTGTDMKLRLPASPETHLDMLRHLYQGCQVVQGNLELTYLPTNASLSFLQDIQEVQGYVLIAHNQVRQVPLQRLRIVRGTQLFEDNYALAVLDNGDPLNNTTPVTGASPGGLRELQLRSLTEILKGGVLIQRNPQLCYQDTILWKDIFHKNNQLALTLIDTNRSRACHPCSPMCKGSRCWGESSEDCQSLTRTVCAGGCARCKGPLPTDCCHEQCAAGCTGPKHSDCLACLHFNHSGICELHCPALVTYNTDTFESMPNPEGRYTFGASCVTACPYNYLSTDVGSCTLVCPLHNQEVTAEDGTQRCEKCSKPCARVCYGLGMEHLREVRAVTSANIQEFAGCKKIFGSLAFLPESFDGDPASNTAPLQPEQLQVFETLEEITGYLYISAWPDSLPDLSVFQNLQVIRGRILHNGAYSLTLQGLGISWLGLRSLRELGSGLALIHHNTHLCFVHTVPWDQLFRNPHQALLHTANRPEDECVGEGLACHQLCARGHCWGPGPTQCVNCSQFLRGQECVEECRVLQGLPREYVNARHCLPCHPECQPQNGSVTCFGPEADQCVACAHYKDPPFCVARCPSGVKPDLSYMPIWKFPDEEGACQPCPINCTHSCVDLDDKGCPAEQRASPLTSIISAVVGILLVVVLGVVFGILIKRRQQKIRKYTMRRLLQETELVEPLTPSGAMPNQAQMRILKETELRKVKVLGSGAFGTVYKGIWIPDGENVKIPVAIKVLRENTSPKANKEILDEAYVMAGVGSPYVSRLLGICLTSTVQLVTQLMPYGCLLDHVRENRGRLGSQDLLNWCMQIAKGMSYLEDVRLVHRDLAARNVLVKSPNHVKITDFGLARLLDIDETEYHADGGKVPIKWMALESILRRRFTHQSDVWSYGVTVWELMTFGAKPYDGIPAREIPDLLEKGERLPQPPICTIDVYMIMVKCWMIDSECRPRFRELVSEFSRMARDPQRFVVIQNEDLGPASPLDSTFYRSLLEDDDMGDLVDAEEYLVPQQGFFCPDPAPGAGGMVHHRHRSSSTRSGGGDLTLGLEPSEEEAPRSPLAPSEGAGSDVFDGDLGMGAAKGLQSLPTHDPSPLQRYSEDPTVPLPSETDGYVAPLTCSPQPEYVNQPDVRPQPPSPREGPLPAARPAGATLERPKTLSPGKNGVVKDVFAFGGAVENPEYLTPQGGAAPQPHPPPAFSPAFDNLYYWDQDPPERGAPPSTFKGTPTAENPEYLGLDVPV

For `CCOc1cc2ncc(C#N)c(Nc3ccc(OCc4ccccn4)c(Cl)c3)c2cc1NC(=O)/C=C/CN(C)C` [Dimethylamino, (E)N-{4-[3-Chloro-4-(2-pyridinylmethoxy)anilino]-3-cyano-7-ethoxy-6-quinolinyl}-4-(dimethylamino)-2-butenamide, reference compound], the IC50 is 2190 ± 700 nM in the data set with 3T3; 5 ± 0.2 nM in the data set on 3T3/neu; 36 ± 20 nM with SK-Br-3 (SK-BR-3, 48 h); 2 ± 0.2 nM in the data set with BT474; 1220 ± 246 nM in data set [1]. The tumor growth inhibition with 3T3/neu xenografts (first test, 40 mg/kg/day, day 18 (data not shown)) is 74%; in the data set on 3T3/neu xenografts (second independent test, between 40 and 80 mg/kg/day, day 14) it was 93-100%. Also, the maximum tumor inhibition is given as 64% with BT474 xenografts (10 mg/kg/day) and 97% in the data set with BT474 xenografts (40 mg/kg/day). Moreover, the “effect on BT474 xenografts” value in the data set with BT474 xenografts is given as “good antitumor activity”.

As for `CCOc1cc2ncc(C#N)c(Nc3ccc(F)c(Cl)c3)c2cc1NC(=O)/C=C/CNCC(=O)OC(C)(C)C` [Example 2, (E)N-{4-[3-chloro-4-fluoroanilino]-3-cyano-7-ethoxy-6-quinolinyl}-4-[N-(t-butyloxycarbonyl)methylamino]-2-butenamide], the melting point (usually the temperature, or range, at which the solid turns liquid) lay in the range of 106.5 to 108 °C.

For `CCOc1cc2ncc(C#N)c(Nc3ccc(OCc4ccccn4)c(Cl)c3)c2cc1NC(=O)/C=C/CNC` [Example 6, (E)N-{4-[3-Chloro-4-(2-pyridinylmethoxy)anilino]-3-cyano-7-ethoxy-6-quinolinyl}-4-(methylamino)-2-butenamide], the IC50 in data set [2] stood at 3.4 nM; against EGFR, 7 nM; on HER-2, 21 nM; against HER-4, 13 nM; in the data set on 3T3 (3T3 untransfected cells, 2 days, SRB, mean and SE (n)), 5460 nM; in the data set with 3T3/neu (3T3/neu, 2 days, SRB, mean and SE (n)), 40 nM. The IC50 in the data set with A431 came to 67 nM; in the data set with SK-Br-3 (48 h, SK-Br-3, 2 days, SRB, mean and SE (n)), 34 nM; in the data set on BT474 (BT474, 6 days, SRB, mean and SE (n)), 3 nM; in data set [1] (SW620, 2 days, SRB, mean and SE (n)) it was 1600 nM. In addition, the “fold less potent than the dimethylamino compound” value in the data set with 3T3/neu (3T3/neu cells) is 8 fold. Also, the “effect on tumor growth” value is listed as “no effect on tumor growth” with 3T3/neu xenografts (first test, daily oral, between 5 and 40 mg/kg/day); “no effect on tumor growth” with 3T3/neu xenografts (second independent test, 100 mg/kg/day). Moreover, the “effect on BT474 xenografts” value with BT474 xenografts is given as “no effect”.
